Where two headings read alike, the source gives them in different places.
Assays:
human CB2 receptors = target: T1, human CB2 receptors (Homo sapiens, UniProt P34972); assay: functional cAMP assay, human CB2; type: cell-based; settings: CHO cells expressing human CB2, cAMP; read-out: human CB2 EC50
T1 construct: expressed in transfected cells; host or cells: CHO cells
Method in brief: (§1)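 Agonist EC50 values came from cAMP levels in CHO cells carrying human CB1 or CB2, after 30 min of compound treatment at 30 °C in the presence of 1 mM IBMX. Detection used a time-resolved FRET cAMP kit read against a cAMP standard curve.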

human CB1 receptors = target: T2, human CB1 receptors (Homo sapiens, UniProt P21554); assay: functional cAMP assay, human CB1; type: cell-based
T2 construct: expressed in transfected cells; host or cells: CHO cells
T2 sequence (P21554 whole entry): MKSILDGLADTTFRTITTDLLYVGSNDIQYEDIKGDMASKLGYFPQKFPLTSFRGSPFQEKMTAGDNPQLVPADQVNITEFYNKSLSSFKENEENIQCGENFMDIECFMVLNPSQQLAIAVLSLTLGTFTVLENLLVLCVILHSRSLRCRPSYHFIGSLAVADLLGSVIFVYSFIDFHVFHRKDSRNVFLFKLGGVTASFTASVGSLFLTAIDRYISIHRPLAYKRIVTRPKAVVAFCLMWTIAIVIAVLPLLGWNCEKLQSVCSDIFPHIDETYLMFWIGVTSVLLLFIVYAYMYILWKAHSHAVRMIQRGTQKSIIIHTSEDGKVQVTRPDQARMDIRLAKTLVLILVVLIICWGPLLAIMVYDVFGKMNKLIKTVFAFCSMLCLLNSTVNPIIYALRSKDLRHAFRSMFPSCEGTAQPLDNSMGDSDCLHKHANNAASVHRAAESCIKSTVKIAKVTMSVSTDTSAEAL
Method in brief: as §1

[1] = CHO cells expressing human CB1, cAMP, read-out: human CB1 EC50

T1 sequence (P34972 whole entry): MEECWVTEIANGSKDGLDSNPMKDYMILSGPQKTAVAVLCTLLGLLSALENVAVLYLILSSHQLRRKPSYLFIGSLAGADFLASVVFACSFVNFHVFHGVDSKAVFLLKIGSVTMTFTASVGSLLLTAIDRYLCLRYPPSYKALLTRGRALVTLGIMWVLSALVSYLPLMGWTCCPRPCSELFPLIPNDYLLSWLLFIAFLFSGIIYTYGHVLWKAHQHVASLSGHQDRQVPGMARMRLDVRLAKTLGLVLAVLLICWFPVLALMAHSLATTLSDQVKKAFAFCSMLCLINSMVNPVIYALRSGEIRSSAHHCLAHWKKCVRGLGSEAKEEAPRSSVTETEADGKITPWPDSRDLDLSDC

SMILES | EC50 (human CB2 receptors) | EC50 (human CB1 receptors; [1]) | EC50 (human CB1 receptors)
Cc1nnc(Cn2nnc3c(N4CC[C@H](O)C4)nc(C(C)(C)C)nc32)n1C [Example 153, (S)-1-[5-tert-Butyl-3-(4,5-dimethyl-4H-[1,2,4]triazol-3-ylmethyl)-3H-[1,2,3]triazolo[4,5-d]pyrimidin-7-yl]-pyrrolidin-3-ol] | 11.9 nM | > 10000 nM | –
CC(C)(C)c1nc(N2CCC(F)(F)C2)c2nnn(CC(=O)c3ccncc3)c2n1 [Example 118, 2-[5-tert-Butyl-7-(3,3-difluoro-pyrrolidin-1-yl)-[1,2,3]triazolo[4,5-d]pyrimidin-3-yl]-1-pyridin-4-yl-ethanone] | 0.9 nM | > 10000 nM | –
CC(C)(C)c1nc(N2CC[C@H](O)C2)c2nnn(Cc3nc(Cl)ccc3Cl)c2n1 [Example 139, (S)-1-[5-tert-Butyl-3-(3,6-dichloro-pyridin-2-ylmethyl)-3H-[1,2,3]triazolo[4,5-d]pyrimidin-7-yl]-pyrrolidin-3-ol] | 0.3 nM | > 10000 nM | –
Cc1nnc(Cn2nnc3c(N4CC[C@H](O)[C@@H]4CO)nc(C(C)(C)C)nc32)n1C [Example 170, (2S,3S)-1-[5-tert-Butyl-3-(4,5-dimethyl-4H-[1,2,4]triazol-3-ylmethyl)-3H-[1,2,3]triazolo[4,5-d]pyrimidin-7-yl]-2-hydroxymethyl-pyrrolidin-3-ol] | 194 nM | – | > 10000 nM
CC(C)(C)c1nc(N2CC(F)(F)C[C@@H]2CO)c2nnn(Cc3ccccc3Cl)c2n1 [Example 94, {(R)-1-[5-tert-Butyl-3-(2-chloro-benzyl)-3H-[1,2,3]triazolo[4,5-d]pyrimidin-7-yl]-4,4-difluoro-pyrrolidin-2-yl}-methanol] | 1 nM | > 10000 nM | –
Cc1cc(Cn2nnc3c(N4CCC(F)(F)C4)nc(C(C)(C)C)nc32)n(C)n1 [Example 144, 5-tert-Butyl-7-(3,3-difluoro-pyrrolidin-1-yl)-3-(2,5-dimethyl-2H-pyrazol-3-ylmethyl)-3H-[1,2,3]triazolo[4,5-d]pyrimidine] | 0.4 nM | 123 nM | –
CC(C)(C)c1nc(N2CCC(O)CC2)c2nnn(Cc3ccccc3Cl)c2n1 [Example 32, 1-[5-tert-Butyl-3-(2-chloro-benzyl)-3H-[1,2,3]triazolo[4,5-d]pyrimidin-7-yl]-piperidin-4-ol] | 20.7 nM | > 10000 nM | –
COc1nc(C(C)(C)C)nc2c1nnn2Cc1ccccc1Cl [Example 207, 5-tert-Butyl-3-(2-chloro-benzyl)-7-methoxy-3H-[1,2,3]triazolo[4,5-d]pyrimidine] | 68 nM | > 10000 nM | –
Cn1nnnc1Cn1nnc2c(N3CC[C@@](C)(O)C3)nc(C(C)(C)C)nc21 [Example 227-b, (R)-1-(5-tert-butyl-3-((1-methyl-1H-tetrazol-5-yl)methyl)-3H-[1,2,3]triazolo[4,5-d]pyrimidin-7-yl)-3-methylpyrrolidin-3-ol] | 43.5 nM | > 10000 nM | –
Cc1noc(Cn2nnc3c(N4CC(F)(F)C(F)(F)C4)nc(C(C)(C)C)nc32)n1 [Example 174, 5-tert-Butyl-3-(3-methyl-[1,2,4]oxadiazol-5-ylmethyl)-7-(3,3,4,4-tetrafluoro-pyrrolidin-1-yl)-3H-[1,2,3]triazolo[4,5-d]pyrimidine] | 2 nM | > 10000 nM | –
CC(C)(C)c1nc(N2CCC(F)(F)C2)c2nnn(Cc3cccnc3)c2n1 [Example 74, 5-tert-Butyl-7-(3,3-difluoro-pyrrolidin-1-yl)-3-pyridin-3-ylmethyl-3H-[1,2,3]triazolo[4,5-d]pyrimidine] | 0.1 nM | 55.9 nM | –
CC1(Cn2nnc3c(N4CCC(F)(F)C4)nc(C(C)(C)C)nc32)COC1 [Example 114, 5-tert-Butyl-7-(3,3-difluoro-pyrrolidin-1-yl)-3-(3-methyl-oxetan-3-ylmethyl)-3H-[1,2,3]triazolo[4,5-d]pyrimidine] | 0.4 nM | > 10000 nM | –
CC(C)(C)c1nc(N2CC3(COC3)C2)c2nnn(Cc3ccccc3Cl)c2n1 [Example 10, 5-tert-Butyl-3-(2-chloro-benzyl)-7-(2-oxa-6-aza-spiro[3.3]hept-6-yl)-3H-[1,2,3]triazolo[4,5-d]pyrimidine] | 2.4 nM | 404 nM | –
CCn1nnc2c(N3CCC(F)(F)C3)nc(C(C)(C)C)nc21 [Example 61, 5-tert-butyl-7-(3,3-difluoropyrrolidin-1-yl)-3-ethyl-3H-[1,2,3]triazolo[4,5-d]pyrimidine] | 13.2 nM | > 10000 nM | –
CC(C)(C)c1nc(N2CCCOCC2)c2nnn(Cc3ccccc3Cl)c2n1 [Example 22, 5-tert-Butyl-3-(2-chloro-benzyl)-7-[1,4]oxazepan-4-yl-3H-[1,2,3]triazolo[4,5-d]pyrimidine] | 2.4 nM | 1500 nM | –
CC(=O)N[C@@H]1CCN(c2nc(C(C)(C)C)nc3c2nnn3Cc2ccccc2Cl)C1 [Example 193, N-{(R)-1-[5-tert-Butyl-3-(2-chloro-benzyl)-3H-[1,2,3]triazolo[4,5-d]pyrimidin-7-yl]-pyrrolidin-3-yl}-acetamide] | 593 nM | > 10000 nM | –

SMILES | EC50 (human CB2 receptors) | EC50 (human CB1 receptors; [1]) | EC50 (human CB1 receptors)
Cn1nnnc1Cn1nnc2c(N3CCC(F)(F)C3)nc(C(C)(C)C)nc21 [Example 131, 5-tert-Butyl-7-(3,3-difluoro-pyrrolidin-1-yl)-3-(1-methyl-1H-tetrazol-5-ylmethyl)-3H-[1,2,3]triazolo[4,5-d]pyrimidine] | 0.1 nM | > 10000 nM | –
CC(C)(C)c1nc(N2CC[C@H](O)C2)c2nnn(Cc3cccc(Cl)c3Cl)c2n1 [Example 141, (S)-1-[5-tert-Butyl-3-(2,3-dichloro-benzyl)-3H-[1,2,3]triazolo[4,5-d]pyrimidin-7-yl]-pyrrolidin-3-ol] | 0.5 nM | > 10000 nM | –
CC(C)(C)c1nc(N2CC3(COC3)C2)c2nnn(Cc3nnnn3C3CC3)c2n1 [Example 183, 5-tert-Butyl-3-(1-cyclopropyl-1H-tetrazol-5-ylmethyl)-7-(2-oxa-6-aza-spiro[3.3]hept-6-yl)-3H-[1,2,3]triazolo[4,5-d]pyrimidine] | 4.2 nM | > 10000 nM | –
COc1ccccc1Cn1nnc2c(N3CCC(F)(F)C3)nc(C(C)(C)C)nc21 [Example 81, 5-tert-Butyl-7-(3,3-difluoro-pyrrolidin-1-yl)-3-(2-methoxy-benzyl)-3H-[1,2,3]triazolo[4,5-d]pyrimidine] | 0.1 nM | 68.9 nM | –
CC(C)(C)c1nc(N2CC[C@H](O)C2)c2nnn(Cc3cccnc3Cl)c2n1 [Example 140, (S)-1-[5-tert-Butyl-3-(2-chloro-pyridin-3-ylmethyl)-3H-[1,2,3]triazolo[4,5-d]pyrimidin-7-yl]-pyrrolidin-3-ol] | 0.1 nM | > 10000 nM | –
Cc1noc(Cn2nnc3c(N4CC[C@@](C)(O)C4)nc(C(C)(C)C)nc32)n1 [Example 226-b, (R)-1-(5-tert-butyl-3-((3-methyl-1,2,4-oxadiazol-5-yl)methyl)-3H-[1,2,3]triazolo[4,5-d]pyrimidin-7-yl)-3-methylpyrrolidin-3-ol] | 233 nM | > 10000 nM | –
CC(C)(C)c1nc(N2CCC(F)(F)C2)c2nnn(Cc3ccccn3)c2n1 [Example 73, 5-tert-Butyl-7-(3,3-difluoro-pyrrolidin-1-yl)-3-pyridin-2-ylmethyl-3H-[1,2,3]triazolo[4,5-d]pyrimidine] | 0.1 nM | 60.9 nM | –
CC(C)(C)c1nc(N2CCC(F)(F)C2)c2nnn(Cc3cccc(Cl)c3)c2n1 [Example 65, 5-tert-Butyl-3-(3-chloro-benzyl)-7-(3,3-difluoro-pyrrolidin-1-yl)-3H-[1,2,3]triazolo[4,5-d]pyrimidine] | 0.9 nM | 220 nM | –
Cn1ccc(C2CCCN2c2nc(C(C)(C)C)nc3c2nnn3Cc2ccccc2Cl)n1 (centres unmarked) [Example 200, 5-tert-Butyl-3-(2-chloro-benzyl)-7-[2-(1-methyl-1H-pyrazol-3-yl)-pyrrolidin-1-yl]-3H-[1,2,3]triazolo[4,5-d]pyrimidine] | 178 nM | – | > 10000 nM
CC(C)(C)c1nc(N2CCC(F)(F)C2)c2nnn(CC(=O)c3ccc(Cl)cc3)c2n1 [Example 116, 2-[5-tert-Butyl-7-(3,3-difluoro-pyrrolidin-1-yl)-[1,2,3]triazolo[4,5-d]pyrimidin-3-yl]-1-(4-chloro-phenyl)-ethanone] | 3 nM | > 10000 nM | –
Cc1noc(Cn2nnc3c(N4CCC(F)(F)C4)nc(C(C)(C)C)nc32)n1 [Example 102, 5-tert-Butyl-7-(3,3-difluoro-pyrrolidin-1-yl)-3-(3-methyl-[1,2,4]oxadiazol-5-ylmethyl)-3H-[1,2,3]triazolo[4,5-d]pyrimidine] | 0.6 nM | > 10000 nM | –
CC(C)(C)c1nc(N2CCC3(COC3)C2)c2nnn(Cc3ccccc3Cl)c2n1 [Example 31, 5-tert-Butyl-3-(2-chloro-benzyl)-7-(2-oxa-6-aza-spiro[3.4]oct-6-yl)-3H-[1,2,3]triazolo[4,5-d]pyrimidine] | 9.8 nM | 1260 nM | –
Cc1nnc(Cn2nnc3c(N4CC5(COC5)C4)nc(C(C)(C)C)nc32)n1C [Example 184, 5-tert-Butyl-3-(4,5-dimethyl-4H-[1,2,4]triazol-3-ylmethyl)-7-(2-oxa-6-aza-spiro[3.3]hept-6-yl)-3H-[1,2,3]triazolo[4,5-d]pyrimidine] | 112 nM | – | > 10000 nM
CC(C)(C)c1nc(N2CC[C@](C)(O)C2)c2nnn(Cc3ccccc3Cl)c2n1 [Example 221-a, (S)-1-(5-tert-butyl-3-(2-chlorobenzyl)-3H-[1,2,3]triazolo[4,5-d]pyrimidin-7-yl)-3-methylpyrrolidin-3-ol] | 3 nM | 1800 nM | –
CC(C)(C)c1nc(N2CCC(F)(F)C2)c2nnn(Cc3ccncc3Cl)c2n1 [Example 129, 5-tert-Butyl-3-(3-chloro-pyridin-4-ylmethyl)-7-(3,3-difluoro-pyrrolidin-1-yl)-3H-[1,2,3]triazolo[4,5-d]pyrimidine] | 0.1 nM | 670 nM | –
